Results: BindingDB's records for doi:10.1016/j.ejmech.2018.10.033 (Key Laboratory of Molecular Pharmacology and Drug …, 2019)

How the values were obtained:
[1] = Reversal of P-gp-mediated drug resistance in human KBV cells assessed as potentiation of paclitaxel-induced cytotoxicity by measuring paclitaxel IC50 at 5 uM after 24 hrs by MTT assay (Rvb = 3837.57 uM)
[2] = Reversal of P-gp-mediated drug resistance in human KBV cells assessed as potentiation of paclitaxel-induced cytotoxicity by measuring paclitaxel IC50 at 5 uM after 48 hrs by MTT assay (Rvb = 1396.57 uM)
[3] = Reversal of P-gp-mediated drug resistance in human KBV cells assessed as potentiation of paclitaxel-induced cytotoxicity by measuring paclitaxel IC50 at 10 uM after 48 hrs by MTT assay (Rvb = 1396.57 uM)
[4] = Reversal of P-gp-mediated drug resistance in human KBV cells assessed as potentiation of paclitaxel-induced cytotoxicity by measuring paclitaxel IC50 at 10 uM after 24 hrs by MTT assay (Rvb = 3837.57 uM)
[5] = Reversal of P-gp-mediated drug resistance in human KBV cells assessed as potentiation of paclitaxel-induced cytotoxicity by measuring paclitaxel IC50 at 5 uM after 72 hrs by MTT assay (Rvb = 398.34 +/- 0.58 uM)
[6] = Reversal of P-gp-mediated drug resistance in human KBV cells assessed as potentiation of paclitaxel-induced cytotoxicity by measuring paclitaxel IC50 at 10 uM after 72 hrs by MTT assay (Rvb = 398.34 +/- 0.58 uM)
[7] = Reversal of P-gp-mediated drug resistance in human KBV cells assessed as potentiation of paclitaxel-induced cytotoxicity by measuring paclitaxel IC50 at 10 uM

| Compound | IC50 [1] [nM] | IC50 [2] [nM] | IC50 [3] [nM] | IC50 [4] [nM] | IC50 [5] [nM] | IC50 [6] [nM] | IC50 [7] [nM] |
| --- | --- | --- | --- | --- | --- | --- | --- |
| CN(C)CCCOC(=O)[C@]12CCC(C)(C)C[C@H]1C1=CC[C@@H]3[C@@]4(C)Cc5nccnc5[C@@](C)(CO)[C@@H]4CC[C@@]3(C)[C@]1(C)CC2 | 49.8 | 21.2 | 17.2 | 35 | 12.3 | 1.59 | – |
| CC1(C)CC[C@]2(C(=O)OCc3ccccc3)CC[C@]3(C)C(=CC[C@@H]4[C@@]5(C)Cc6nccnc6[C@@](C)(CO)[C@@H]5CC[C@]43C)[C@@H]2C1 | – | – | – | – | – | – | 2.4 |
